Results published in patent publication US8633314B2, “Forms of a multicyclic compound” (Cephalon, Inc., priority 2009, dated 2014).

Key:
Assay type in all cases: physicochemical
[1] = Mechanical stress: grinding by mortar and pestle, milling by Wig-L-Bug
Description: Approximately 100 mg of Compound I was ground at different times ranging from 5 to 27 min in an agate mortar. Samples were removed for XRPD and thermal analysis. The grinding process was stopped every 5 minutes to scrape and remix powder cakes at the curvature end of the jars to ensure homogenous grinding.
A Wig-l-Bug® (Piketech, USA) was used to grind Compound I Form A0, HA0 and HB0 (mixture of Forms HC0 and HD0). Each sample (50 mg) was ground for periods of 5 and 10 minutes or until no change was observed. Each milling was carried out in a 2.82 cm^3 container using 0.9 g stainless steel ball ([…]). The vial is swung through a 6.5° arc at 3200 rpm, causing the ball to strike the end of the vial at over 100 Hz.

[2] = Well plate crystallization with added water (forms found)
Description: B. Plates containing 10 volumes of Compound I (40 mg of Lot 7 in 400 μL) were heated from 20° C. to an initial temperature of 80° C. at a rate of 4.8° C./min and after 30 minutes, cooled at a slow (0.28° C./min), or fast (10° C./min) rate to a final temperature of 5° C. and kept at that temperature for 18 hours. The crystallization experiments were carried out in glass vial (4 mL) well plates, and solid material was isolated by filtration. The solid was dried at 57° C. for 10 hours.

[3] = Solid state stress stability (storage; XRPD and stability-indicating HPLC)
Description: Typically 10 μL aliquots of the sample solutions were diluted to 1 mL with acetonitrile and the assay concentrations were determined from an average of duplicate injections using the following HPLC method. The purity and impurity analyses are done using conventional HPLC.
Crystallization studies were performed to investigate polymorphism in 48 different solvents. Solvents were selected on the basis of acceptability (ICH Class 3 and 2) and to give a range of dielectric constants, dipole moments and functional groups. Two starting materials were selected: Form A0 and Lot 7 (a mixture of Form A0, Form HC0 and Form HD0). When possible, full characterization was performed on the new forms that were generated during the polymorphism screening of Compound I. This characterization consisted of: XRPD, thermal analysis, DVS, storage at 40° C./75% RH and purity.
Stress stability studies were performed to get a timely impression of the influence of temperature and humidity on form stability. A stability-indicating HPLC assay method was developed for quantitation of Compound I and its major degradation product, 7-methoxy-1,2,3,11-tetrahydro-5,11-diaza-benzo[a]trindene-4,6-dione, previously referred to as “Compound E”.

[4] = Dynamic vapor sorption (DVS)
Description: Gravimetric vapor sorption experiments were carried out using the DVS-HT instrument (Surface Measurement Systems, London, UK). This instrument measures the uptake and loss of vapor gravimetrically using a recording ultra-microbalance with a mass resolution of ±0.1 μg. The vapor partial pressure (±1.0%) around the sample was controlled by mixing saturated and dry carrier gas streams using electronic mass flow controllers. The desired temperature was maintained at ±0.1° C.
The samples (10-25 mg) were placed into the DVS-HT instrument at the desired temperature. Two types of dynamic vapor sorption experiments were performed: • 1. The sample was initially dried in stream of dry air (<0.1% relative humidity (RH)) for 20 hours to establish a dry mass and exposed to two 0-90% RH cycles (in 10% RH increments). • 2. The sample was exposed at 90% RH for 20 hours and exposed to two 90-0% RH cycles (in 10% RH increments). Infrared Spectrometry (FTIR)

[5] = Relative stability of slurries in water (XRPD of residual solid); conditions: for form after slurrying in water: slurried overnight in 2 ml water, all conditions investigated; for Forms Found (XRPD of residual solid): water
Description: Two ml of water was added to a few milligrams of Compound I forms. The samples were slurried overnight. A small sample of solid was removed and analyzed by XRPD. […] The hydrate form appears to be more thermodynamically stable than Form A0 between 5 and 45° C.

[6] = Variable temperature X-ray powder diffraction (VT-XRPD)
Description: Variable temperature studies were performed under a nitrogen atmosphere with an Anton Paar TTK450 temperature chamber under computer control through an Anton Paar TCU100 temperature control unit. Two measurement schemes were used, restricted and continuous. In the restricted mode, measurements were made, only after the TK450 chamber reached the requested temperature. In the continuous mode, the sample was heated at 10° C./minute and fast scans were measured as the temperature changed. After the requested temperature was reached, the sample was cooled at 30 or 35° C./minute and a slower scan measured 25° C.

[7] = Irregular DVS (90 to 0% RH), listed as A0
[8] = Regular DVS (0 to 90% RH), listed as A0
[9] = Regular DVS (0 to 90% RH), listed as HC0

COc1cccc2[nH]c3c4c(c5c(c3c12)C(=O)N(CN1CCN(C)CC1)C5=O)CCC4 [Form HB0]
factor of reduction in intensity of XRPD peak at 7.6° (2θ) ([1]; three five-minute grinding intervals): approximately 30

COc1cccc2[nH]c3c4c(c5c(c3c12)C(=O)N(CN1CCN(C)CC1)C5=O)CCC4 [Form A0, 4,5,6,7-tetrahydro-11-methoxy-2-[(4-methyl-1-piperazinyl)methyl]-1H-cyclopenta[a]pyrrolo[3,4-c]carbazole-1,3(2H)-dione]
form produced on crystallization from aqueous media [2]: a mixture of Forms HC0+HD0 is produced
Forms Found ([2]; methyl acetate, 0.175 volumes of water): HC0, HD0
Forms Found ([2]; methyl acetate, 0.25 volumes of water): HC0, HD0
Forms Found ([2]; methyl acetate, 1 volume of water): HC0, HD0
Forms Found ([2]; methyl acetate, 1.5 volumes of water): HC0, HD0
Chemical Stability (HPLC (post 4 weeks at 40° C./75% RH (Area %))) ([3]; 40° C./75% RH): 99.0 Area %
forms arising on storage (water uptake) ([3]; 40° C. and 75% RH, after 3 months): hydrate Forms HC0 and HD0
HPLC % Compound I ([3]; 40° C./75% RH, 5 days): 99.2% Compound I,
HPLC % Compound I ([3]; 40° C./75% RH, 16 days): 99.2% Compound I,
HPLC % Compound I ([3]; 40° C./75% RH, 29 days): 99.2% Compound I,
HPLC % Compound I ([3]; 40° C./75% RH, 141 days): 99.0% Compound I,
XRPD (form found) ([3]; 40° C./75% RH, 141 days): A0, HC0, HD0
HPLC % Compound I ([3]; 60° C./0% RH, 7 days): 99.3% Compound I,
HPLC % Compound I ([3]; 60° C./0% RH, 14 days): 99.1% Compound I,
HPLC % Compound I ([3]; 60° C./0% RH, 28 days): 99.1% Compound I,
HPLC % Compound I ([3]; 110° C., 7 days): 98.7% Compound I,
HPLC % Compound I ([3]; 110° C., 14 days): 95.6% Compound I,
HPLC % Compound I ([3]; 110° C., 28 days): 93.4% Compound I,
XRPD crystallinity after milling ([1]; five minutes, Wig-l-Bug): crystallinity had been significantly reduced
XRPD crystallinity after grinding ([1]; twenty minutes, mortar and pestle): crystallinity had been significantly reduced
DVS % increase in mass at 90% RH [4]: 0.1%
Total uptake at 90% RH ([4]; Irregular DVS (90 to 0% RH)): 0.5%
changes by XRPD re-analysis after DVS ([4]; Irregular DVS (90 to 0% RH)): No significant changes
total increase in mass (reversible isotherm) ([4]; Irregular DVS (90 to 0% RH)): < 0.6%
At 75% RH uptake [4, 7]: 0.15%
Total uptake at 90% RH [4, 7]: 0.5%
At 75% RH uptake ([4]; Regular DVS (0 to 90% RH)): less than 0.08%
Total uptake at 90% RH ([4]; Regular DVS (0 to 90% RH)): approximately 0.1%
changes by XRPD re-analysis after DVS ([4]; Regular DVS (0 to 90% RH)): No significant changes
hygroscopicity ([4]; Regular DVS (0 to 90% RH), adsorption and desorption curves overlap): not hygroscopic
At 75% RH uptake [4, 8]: 0.08%
Total uptake at 90% RH [4, 8]: 0.1%
form after slurrying in water [5]: converted to the hydrate forms (mixture of Forms HC0 and HD0)
Forms Found (XRPD of residual solid) ([5]; 5° C., 1 day): HC0, HD0
Forms Found (XRPD of residual solid) ([5]; 5° C., 4 days): HC0, HD0
Forms Found (XRPD of residual solid) ([5]; 45° C., 1 day): HA0, HC0
solid-solid transformation (VT-XRPD) ([6]; 20° C. to 250° C.): No solid-solid transformation takes place
change in XRPD pattern after heating ([6]; heated to 220° C., then exposure to ambient conditions): no significant change

COc1cccc2[nH]c3c4c(c5c(c3c12)C(=O)N(CN1CCN(C)CC1)C5=O)CCC4 [Form S40]
HPLC % Compound I ([3]; 40° C./75% RH, 9 days): 99.4% Compound I,
XRPD (form found) ([3]; 40° C./75% RH, 9 days): transformed into monohydrate Form HC0
XRPD (form found) ([3]; 40° C./75% RH, 9 days, listed as S40): HC0
HPLC % Compound I ([3]; 40° C./75% RH, 17 days): 99.4% Compound I,
XRPD (form found) ([3]; 40° C./75% RH, 17 days): HC0
HPLC % Compound I ([3]; 40° C./75% RH, 31 days): 99.4% Compound I,
XRPD (form found) ([3]; 40° C./75% RH, 31 days): HC0
HPLC % Compound I ([3]; 40° C./75% RH, 62 days): 99.2% Compound I,
XRPD (form found) ([3]; 40° C./75% RH, 62 days): remained in this state
XRPD (form found) ([3]; 40° C./75% RH, 62 days, listed as S40): HC0

COc1cccc2[nH]c3c4c(c5c(c3c12)C(=O)N(CN1CCN(C)CC1)C5=O)CCC4 [Compound I, 4,5,6,7-tetrahydro-11-methoxy-2-[(4-methyl-1-piperazinyl)methyl]-1H-cyclopenta[a]pyrrolo[3,4-c]carbazole-1,3(2H)-dione]
chemical degradation ([3]; 40° C. and 75% RH): not observed
chemical degradation ([3]; exposed to 110° C.): observed

COc1cccc2[nH]c3c4c(c5c(c3c12)C(=O)N(CN1CCN(C)CC1)C5=O)CCC4 [Form HC0, 4,5,6,7-tetrahydro-11-methoxy-2-[(4-methyl-1-piperazinyl)methyl]-1H-cyclopenta[a]pyrrolo[3,4-c]carbazole-1,3(2H)-dione]
Chemical Stability (HPLC (post 4 weeks at 40° C./75% RH (Area %))) ([3]; 40° C./75% RH): 99.0 Area %
HPLC % Compound I ([3]; 40° C./75% RH, 0 days): 92.6% Compound I,
XRPD (form found) ([3]; 40° C./75% RH, 0 days): HC0
HPLC % Compound I ([3]; 40° C./75% RH, 28 days): 93.3% Compound I,
HPLC % others ([3]; 40° C./75% RH, 28 days): 0.2% others
XRPD (form found) ([3]; 40° C./75% RH, 28 days): HC0
DVS % increase in mass at 90% RH [4]: 0.44%
At 75% RH uptake ([4]; Irregular DVS (90 to 0% RH)): 0.3%
Total uptake at 90% RH ([4]; Irregular DVS (90 to 0% RH)): 0.4%
changes by XRPD re-analysis after DVS ([4]; Irregular DVS (90 to 0% RH)): No significant changes
Total uptake at 90% RH ([4]; Regular DVS (0 to 90% RH)): 0.4%
changes by XRPD re-analysis after DVS ([4]; Regular DVS (0 to 90% RH)): No significant changes
At 75% RH uptake [4, 9]: 0.3%
Total uptake at 90% RH [4, 9]: 0.4%

COc1cccc2[nH]c3c4c(c5c(c3c12)C(=O)N(CN1CCN(C)CC1)C5=O)CCC4 [Form HA0, 4,5,6,7-tetrahydro-11-methoxy-2-[(4-methyl-1-piperazinyl)methyl]-1H-cyclopenta[a]pyrrolo[3,4-c]carbazole-1,3(2H)-dione]
form produced on crystallization from aqueous media [2]: a mixture of Forms HC0+HD0 is produced
Forms Found ([2]; solvent not given, 0.175 volumes of water): HC0, HD0
Chemical Stability (HPLC (post 4 weeks at 40° C./75% RH (Area %))) ([3]; 40° C./75% RH): 99.0 Area %
HPLC % Compound I ([3]; 40° C./75% RH, 0 days): 99.6% Compound I,
XRPD (form found) ([3]; 40° C./75% RH, 0 days): HA0
HPLC % Compound I ([3]; 40° C./75% RH, 7 days): 99.5% Compound I,
XRPD (form found) ([3]; 40° C./75% RH, 7 days): HA0
HPLC % Compound I ([3]; 40° C./75% RH, 26 days): 99.0% Compound I,
XRPD (form found) ([3]; 40° C./75% RH, 26 days): HA0
XRPD post DVS analysis [4]: No significant changes
DVS % increase in mass at 90% RH [4]: 1.5%
weight decrease in DVS isotherm ([4]; between 20-30% RH): 1.25%
second change in mass ([4]; second desorption phase): ~0.4%
form after slurrying in water [5]: converted to the hydrate forms (mixture of Forms HC0 and HD0)

COc1cccc2[nH]c3c4c(c5c(c3c12)C(=O)N(CN1CCN(C)CC1)C5=O)CCC4 [Form B0, 4,5,6,7-tetrahydro-11-methoxy-2-[(4-methyl-1-piperazinyl)methyl]-1H-cyclopenta[a]pyrrolo[3,4-c]carbazole-1,3(2H)-dione]
solid-solid transformation (VT-XRPD) ([6]; 150° C. to 200° C., after the dehydration): no solid-solid transformation takes place
